Test results as given in US20220218667A1, “DUAL INHIBITORS OF SOLUBLE EPOXIDE HYDROLASE AND METHODS OF USE THEREOF” (OROX Biosciences, Inc., priority 2019, published 2022).
“And” between values parts separate entries of the source, which are not always exact repeats. Identical values can stand only once. “Also recorded” adds a separate entry of the source.

How the values were obtained:
human sEH = target: T1, human sEH (Homo sapiens, UniProt P34913); experiment: sEH inhibition IC50, fluorescent-based assay with purified recombinant sEH; format: biochemical
T1 sequence (P34913 1-555): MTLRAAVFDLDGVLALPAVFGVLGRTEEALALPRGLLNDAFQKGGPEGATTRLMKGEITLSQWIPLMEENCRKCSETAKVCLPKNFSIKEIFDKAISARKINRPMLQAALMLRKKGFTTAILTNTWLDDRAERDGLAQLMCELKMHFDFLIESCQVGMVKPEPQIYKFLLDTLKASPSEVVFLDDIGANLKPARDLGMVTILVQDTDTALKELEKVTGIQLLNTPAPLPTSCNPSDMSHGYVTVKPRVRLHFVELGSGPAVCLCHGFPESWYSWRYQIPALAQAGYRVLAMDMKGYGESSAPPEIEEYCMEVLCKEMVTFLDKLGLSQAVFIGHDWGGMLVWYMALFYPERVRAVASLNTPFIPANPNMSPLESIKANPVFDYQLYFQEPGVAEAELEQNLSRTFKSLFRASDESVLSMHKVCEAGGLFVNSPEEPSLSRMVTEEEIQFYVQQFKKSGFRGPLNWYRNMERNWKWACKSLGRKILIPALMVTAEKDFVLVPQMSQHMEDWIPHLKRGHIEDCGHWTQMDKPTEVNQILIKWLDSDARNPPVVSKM
Method: sEH inhibition IC50 values for the compounds presented herein can be assayed by a recombinant affinity assay using purified sEHs, from human, mouse or rat, in a fluorescent-based assay. In such an assay, enzymes, e.g., ˜1 nM human sEH, are incubated with a potential inhibitors for 5 min in 25 mM Bis-Tris/HCl buffer (200 μL; pH 7.0) at 30° C. before a substrate, e.g., cyano(2-methoxynaphthalen-6-yl)methyl trans-(3-phenyl-oxyran-2-yl)methyl carbonate, (CMNPC) is added ([S]final=5 μM).

COX-2 = target: T2, COX-2 (Homo sapiens, UniProt P35354); experiment: COX-2 inhibition IC50, COX Fluorescent Inhibitor Screening Assay; format: biochemical
T2 construct: purchased Cayman Chemical 700100
T2 sequence (P35354 18-604): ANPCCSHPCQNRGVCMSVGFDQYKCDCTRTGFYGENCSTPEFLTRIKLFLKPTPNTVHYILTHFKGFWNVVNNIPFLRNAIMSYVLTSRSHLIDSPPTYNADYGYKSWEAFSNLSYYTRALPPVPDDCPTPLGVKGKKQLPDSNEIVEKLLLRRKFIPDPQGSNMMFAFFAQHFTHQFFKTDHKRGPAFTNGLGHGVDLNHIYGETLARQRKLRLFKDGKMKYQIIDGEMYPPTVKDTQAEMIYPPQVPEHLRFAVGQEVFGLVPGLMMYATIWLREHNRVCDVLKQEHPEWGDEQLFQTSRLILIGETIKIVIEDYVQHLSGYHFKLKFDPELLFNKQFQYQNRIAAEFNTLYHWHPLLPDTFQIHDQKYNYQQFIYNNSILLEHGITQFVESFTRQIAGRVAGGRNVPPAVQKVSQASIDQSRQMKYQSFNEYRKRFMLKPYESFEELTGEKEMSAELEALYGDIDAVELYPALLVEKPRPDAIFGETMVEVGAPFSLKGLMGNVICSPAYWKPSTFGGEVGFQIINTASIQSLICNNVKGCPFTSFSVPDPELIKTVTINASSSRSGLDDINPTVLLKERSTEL
Method: A COX Fluorescent Inhibitor Screening Assay Kit (catalog number 700100, Cayman Chemical, Ann Arbor, Mich.) is useful for assaying the ability of the compounds provided herein to inhibit ovine COX-1 and human recombinant COX-2 (% inhibition at 100 μM and IC50 values (M), respectively). Stock solutions of test compounds are dissolved in a minimum volume of DMSO. 10 μl of various concentrations of the test compound solutions, e.g., [I]final between 0.01 and 100 μM, are added to a series of supplied reaction buffer solutions (150 μl, 100 mM Tris-HCl, pH 8.0) with either COX-1 or COX-2 (10 μl) enzyme in the presence of Heme (10 μl) and a fluorometric substrate (10 μl). The reactions are initiated by quickly adding 10 μl of arachidonic acid solution and then incubating the system for two minutes at room temperature. Fluorescence of resorufin, which is produced by the reaction between PGG2 and fluorometric substrate, ADHP (10-acetyl-3,7-dihydroxyphenoxazine), is analyzed with an excitation wavelength of 535 nm and an emission wavelength of 590 nm. The intensity of this fluorescence is proportional to the amount of resorufin, which is proportional to the amount of PGG2 present in the well during the incubation. Percent inhibition is calculated by comparison from the 100% initial activity sample value (no inhibitor).

[1] = tested on: C57B/L6 mice exposed to bleomycin; experiment: Example 1: prophylactic treatment of mice exposed to bleomycin (IPF model); format: in vivo, mouse
From the text: 4-(5-phenyl-3-{3-[3-(4-trifluoromethyl-phenyl)-ureido]-propyl}-pyrazol-1-yl)-benzenesulfonamide (PTUPB) [termed OX1] was compared to Pirfenidone, Nintedanib, and GSK225629415 [termed OX3] for treatment of IPF using an established model for IPF treating, which is prophylactic treatment of mice exposed to the chemotherapeutic agent bleomycin. […] Pirfenidone and Nintedanib are standard of care for the treatment of idiopathic pulmonary fibrosis and served as reference compounds in the experiment.
C57B/L6 mice were used in the experiments. When used, Bleomycin was administered intra-oropharyngeally, 1.5 U/kg, QD per established protocol. The test articles were dosed via oral gavage in 200 μL/day vehicle. The doses and formulations of test articles were selected based on the literature describing the lowest doses capable of eliciting pharmacological action.
Animals were dosed with the test articles (or vehicle) starting at day −1 to day 20. On day 1, daily doses of Bleomycin commenced in all but group 1 (negative control) which received the vehicle. On day 21, all animals were weighed and sacrificed. After lungs and bronco-alveolar lavage fluid (BALF) were harvested, they were prepared according to standard procedures for further analysis and histology. All animals were assessed twice a week for body weight and overall appearance. Efficacy endpoints measured in this study included lung weight, total leukocytes, and histology as determined by Mason's Trichrome stain and scored using a modified Ashcroft score.
The following parameters were measured in bronchoalveolar fluid (BALF): 1) soluble collagen and 2) differential leukocyte counts for different leukocyte populations.
After weighing and removal of BALF from the lungs, they were inflated and fixed using 10% neutral buffered formalin for histopathology analysis. Fifty-four formalin-fixed lung samples from mice were submitted to HistoTox Labs and were processed routinely. Two slides from each block were sectioned and stained with hematoxylin and eosin (H&E) or Masson's trichrome. Glass slides were evaluated with light microscopy by a board-certified veterinary pathologist. Lung sections were scored according to the modified Ashcroft scale.

[2] = day 21, OX1, OX3, Nintedanib 30 mg/kg QD, Pirfenidone 100 mg/kg BID, oral
[3] = day 21, compared to vehicle (Group 2), OX1, OX3, Nintedanib 30 mg/kg QD, Pirfenidone 100 mg/kg BID

## NS(=O)(=O)c1ccc(-n2nc(CCCNC(=O)Nc3ccc(C(F)(F)F)cc3)cc2-c2ccccc2)cc1 [OX1, 4-(5-phenyl-3-{3-[3-(4-trifluoromethyl-phenyl)-ureido]-propyl}-pyrazol-1-yl)-benzenesulfonamide]
Human sEH
  IC50: 2 nM
COX-2
  IC50: 100 nM
[1]; bleomycin mice, OX1 30 mg/kg QD oral gavage day -1 to 20, day 21 vs day -1, 30 mg/kg
  body weight change at end of experiment compared to starting point: −1% and ~1%
[1]; bleomycin mice, oral gavage day -1 to 20, OX1, OX3, Nintedanib 30 mg/kg QD, Pirfenidone 100 mg/kg BID
  body weight course over 21 days: lost the least weight
[1]; day 21, OX1 30 mg/kg QD oral
  lung weight (indicator of fluid accumulation and inflammation): performed best in reducing bronchoalveolar fluid (BALF) accumulation and inflammation
[1]; day 21, OX1 30 mg/kg QD oral, 30 mg/kg
  soluble collagen in BALF: most effective in controlling the overall collagen production; also recorded: most effective test article in lowering production of soluble collagen
[1]; [2]
  neutrophil migration into BALF: effective
  number of lymphocytes in BALF: most effective at maintaining a large number of lymphocytes
  total cell (leukocyte) count in BALF: did not demonstrate the same level of reduction
[1]; [3]
  increased collagen (fibrosis) score, trichrome: lowest tissue deposition of collagen; also recorded: markedly reduced
  mean Ashcroft score (lung histology): markedly reduced
  mean score for mixed peribronchiolar/perivascular inflammation: lower
